Reference: ChEMBL document CHEMBL1136786, “2002 Medicinal Chemistry Division Award address: monoamine transporters and opioid receptors. Targets for addiction therapy” (J Med Chem, 2003)
The source made the active and inactive calls. The calls are words filed in the database; no cut-off is given here.

Assays:
[1] = target: Mu-type opioid receptor (Cavia porcellus) (UniProt P97266); assay: Inhibition of [35S]GTP-gamma-S, binding in guines pig caudate stimulated by DAMGO for Opioid receptor mu 1; format: functional
[2] = target: Kappa-type opioid receptor (Cavia porcellus) (UniProt P41144); assay: Inhibition of [35S]GTP-gamma-S, binding in guines pig caudate stimulated by U69, 593 of Opioid receptor kappa 1; format: functional
[3] = target: Sodium-dependent dopamine transporter (Rattus norvegicus, UniProt P23977); assay: Inhibition of [3H]WIN-35428 binding at dopamine transporter was determined
[4] = target: Sodium-dependent serotonin transporter (Rattus norvegicus, UniProt P31652); assay: Inhibition of [3H]paroxetine binding at serotonin transporter was determined
[5] = target: T1, Norepinephrine transporter (Rattus norvegicus, UniProt Q9WTR4); assay: Affinity for norepinephrine transporter determined by [3H]nisoxetine displacement.
Rattus norvegicus [6] = assay: Effective dose of compound required to produce maximal locomotor activity in cocaine-trained rat by intraperitoneal administration; format: functional; conditions: ip
Rattus norvegicus [7] = assay: Time taken to produce maximal locomotor activity at 30 min period in rat by intraperitoneal administration; format: functional
Rattus norvegicus [8] = assay: Maximal locomotor activity of compound compared as a percent of cocaine's effect in rat by intraperitoneal administration; format: functional
Rattus norvegicus [9] = assay: Time during which activity returned to baseline level in rat by intraperitoneal administration; format: functional
Rattus norvegicus [10] = assay: Effective dose of compound required to produce maximal locomotor activity in rat by intraperitoneal administration; format: functional; conditions: ip
Mu-type opioid receptor = Mu-type opioid receptor (Cavia porcellus, UniProt P97266); assay: Inhibition of binding of [3H]DAMGO to Opioid receptor mu 1 in guinea pig membranes; format: cell membranes
Mus musculus [11] = species: Mus musculus; assay: Antagonistic activity of nicotine-induced hypothermia in mice was determined; format: functional
[12] = target: Sodium-dependent dopamine transporter (Homo sapiens, UniProt Q01959); assay: Inhibition of dopamine (DA) reuptake using cloned human dopamine transporter was determined
[13] = target: Sodium-dependent serotonin transporter (Homo sapiens, UniProt P31645); assay: Inhibition of Serotonin (5-HT) reuptake using cloned human transporter was determined
[14] = target: Sodium-dependent noradrenaline transporter (Homo sapiens, UniProt P23975); assay: Inhibition of Norepinephrine (NA) reuptake using cloned human Norepinephrine transporter was determined
[15] = target: T1, Norepinephrine transporter; assay: Inhibition of [3H]nisoxetine binding at norepinephrine transporter
Mus musculus [16] = species: Mus musculus; assay: Antagonistic activity of nicotine-induced analgesia in mice was determined; format: functional
[17] = target: D(1A) dopamine receptor (Rattus norvegicus) (UniProt P18901); conditions: Striatum
[18] = target: D(1A) dopamine receptor (Rattus norvegicus) (UniProt P18901); conditions: Striatum; remark: listed apart in the source
[19] = target: Kappa-type opioid receptor (Cavia porcellus) (UniProt P41144)
Description: Inhibition of [35S]GTP-gamma-S, binding in cloned Opioid receptor kappa 1 stimulated by U69, 593

[20] = target: Kappa-type opioid receptor (Cavia porcellus) (UniProt P41144); remark: listed apart in the source
Description: Inhibition of [35S]GTP-gamma-S, binding in guines pig caudate stimulated by U50, 488 of Opioid receptor kappa 1

[21] = target: Mu-type opioid receptor (Cavia porcellus) (UniProt P97266)
Description: Inhibition of [35S]GTP-gamma-S, binding in cloned Opioid receptor mu 1 stimulated by DAMGO

[22] = target: Delta-type opioid receptor (Homo sapiens) (UniProt P41143); conditions: Cavia porcellus
Description: Inhibition of [35S]GTP-gamma-S, binding in cloned Opioid receptor delta 1 stimulated by SNC-80

[23] = target: Kappa-type opioid receptor (Cavia porcellus) (UniProt P41144); remark: listed apart in the source
Description: Inhibition of [35S]GTP-gamma-S, binding in cloned Opioid receptor kappa 1 stimulated by U50,488

Sequence of Sodium-dependent dopamine transporter (Rattus norvegicus, UniProt P23977) (P23977 whole entry): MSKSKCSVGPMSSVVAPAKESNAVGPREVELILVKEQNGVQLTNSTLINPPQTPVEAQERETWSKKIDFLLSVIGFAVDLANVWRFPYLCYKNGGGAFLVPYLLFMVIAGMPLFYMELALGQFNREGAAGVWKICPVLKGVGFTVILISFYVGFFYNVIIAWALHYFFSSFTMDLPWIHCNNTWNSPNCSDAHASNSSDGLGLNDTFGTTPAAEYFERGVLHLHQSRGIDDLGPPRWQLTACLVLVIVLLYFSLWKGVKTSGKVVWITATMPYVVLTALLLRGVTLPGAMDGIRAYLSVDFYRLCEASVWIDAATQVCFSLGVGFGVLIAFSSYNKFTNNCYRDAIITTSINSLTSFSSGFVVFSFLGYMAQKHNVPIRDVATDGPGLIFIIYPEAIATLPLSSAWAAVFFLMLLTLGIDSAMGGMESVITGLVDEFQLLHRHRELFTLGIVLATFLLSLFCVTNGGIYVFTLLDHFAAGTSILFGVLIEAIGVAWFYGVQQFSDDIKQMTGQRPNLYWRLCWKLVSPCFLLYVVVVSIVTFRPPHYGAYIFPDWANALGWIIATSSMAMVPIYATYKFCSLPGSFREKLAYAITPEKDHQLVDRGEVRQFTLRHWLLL
Sequence of Sodium-dependent serotonin transporter (Rattus norvegicus, UniProt P31652) (P31652 whole entry): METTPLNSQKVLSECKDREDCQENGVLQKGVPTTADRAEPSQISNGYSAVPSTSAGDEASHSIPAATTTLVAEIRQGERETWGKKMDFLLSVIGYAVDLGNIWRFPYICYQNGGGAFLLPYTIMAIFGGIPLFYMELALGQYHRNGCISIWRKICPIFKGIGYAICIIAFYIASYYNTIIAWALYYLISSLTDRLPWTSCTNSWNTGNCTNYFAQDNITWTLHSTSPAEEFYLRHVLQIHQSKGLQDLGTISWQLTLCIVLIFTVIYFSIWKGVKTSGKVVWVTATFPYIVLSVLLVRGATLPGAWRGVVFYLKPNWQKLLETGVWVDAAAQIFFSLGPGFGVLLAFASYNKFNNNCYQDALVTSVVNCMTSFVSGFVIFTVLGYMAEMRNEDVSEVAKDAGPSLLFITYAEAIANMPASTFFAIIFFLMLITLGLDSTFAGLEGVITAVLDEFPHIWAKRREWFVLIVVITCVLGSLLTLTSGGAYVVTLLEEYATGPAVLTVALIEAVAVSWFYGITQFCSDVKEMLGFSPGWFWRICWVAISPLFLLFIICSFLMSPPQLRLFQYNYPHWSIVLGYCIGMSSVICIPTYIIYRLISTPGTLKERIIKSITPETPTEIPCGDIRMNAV
T1 sequence (Q9WTR4 whole entry): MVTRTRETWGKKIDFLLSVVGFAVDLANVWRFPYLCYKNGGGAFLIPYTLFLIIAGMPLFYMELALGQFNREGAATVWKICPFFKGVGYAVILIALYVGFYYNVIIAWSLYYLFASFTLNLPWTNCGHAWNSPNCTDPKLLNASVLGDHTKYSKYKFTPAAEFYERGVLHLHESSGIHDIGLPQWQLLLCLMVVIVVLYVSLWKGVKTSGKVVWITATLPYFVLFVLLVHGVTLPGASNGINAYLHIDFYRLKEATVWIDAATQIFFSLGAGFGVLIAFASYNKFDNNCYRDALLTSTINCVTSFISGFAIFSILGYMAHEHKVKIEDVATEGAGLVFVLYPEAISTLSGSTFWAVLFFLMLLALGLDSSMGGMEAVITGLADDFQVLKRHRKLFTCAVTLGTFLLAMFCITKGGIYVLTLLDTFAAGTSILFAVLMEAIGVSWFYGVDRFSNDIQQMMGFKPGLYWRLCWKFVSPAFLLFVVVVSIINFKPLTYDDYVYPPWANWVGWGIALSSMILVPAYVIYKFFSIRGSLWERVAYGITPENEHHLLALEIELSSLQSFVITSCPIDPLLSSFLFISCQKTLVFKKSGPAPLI
Sequence of Kappa-type opioid receptor (Cavia porcellus) (P41144 whole entry): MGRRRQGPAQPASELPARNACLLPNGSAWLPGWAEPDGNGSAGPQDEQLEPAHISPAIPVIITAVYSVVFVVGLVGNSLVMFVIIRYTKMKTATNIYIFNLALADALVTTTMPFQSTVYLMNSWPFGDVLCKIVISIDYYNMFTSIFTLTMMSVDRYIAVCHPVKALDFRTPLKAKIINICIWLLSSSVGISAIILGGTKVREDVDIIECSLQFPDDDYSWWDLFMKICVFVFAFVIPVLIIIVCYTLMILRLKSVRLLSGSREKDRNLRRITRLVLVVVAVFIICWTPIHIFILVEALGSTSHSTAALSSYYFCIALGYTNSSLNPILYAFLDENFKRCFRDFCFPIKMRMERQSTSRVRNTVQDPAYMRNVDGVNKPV
Sequence of Mu-type opioid receptor (Cavia porcellus) (P97266 whole entry): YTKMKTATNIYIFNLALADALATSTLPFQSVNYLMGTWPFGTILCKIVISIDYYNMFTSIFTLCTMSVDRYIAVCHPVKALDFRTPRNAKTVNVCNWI
Sequence of D(1A) dopamine receptor (Rattus norvegicus) (P18901 whole entry): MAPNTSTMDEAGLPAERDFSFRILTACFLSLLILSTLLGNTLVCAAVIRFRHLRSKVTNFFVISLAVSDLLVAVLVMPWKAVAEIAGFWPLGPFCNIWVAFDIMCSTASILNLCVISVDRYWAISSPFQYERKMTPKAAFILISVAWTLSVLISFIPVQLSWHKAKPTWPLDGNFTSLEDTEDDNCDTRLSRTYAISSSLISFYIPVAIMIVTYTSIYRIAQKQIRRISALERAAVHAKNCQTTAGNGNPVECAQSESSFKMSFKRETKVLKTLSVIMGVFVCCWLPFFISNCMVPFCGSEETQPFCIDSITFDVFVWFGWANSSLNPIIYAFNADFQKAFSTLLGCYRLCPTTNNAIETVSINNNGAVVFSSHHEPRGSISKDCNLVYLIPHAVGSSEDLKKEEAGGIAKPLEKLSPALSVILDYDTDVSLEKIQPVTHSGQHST
Sequence of Sodium-dependent dopamine transporter (Homo sapiens, UniProt Q01959) (Q01959 whole entry): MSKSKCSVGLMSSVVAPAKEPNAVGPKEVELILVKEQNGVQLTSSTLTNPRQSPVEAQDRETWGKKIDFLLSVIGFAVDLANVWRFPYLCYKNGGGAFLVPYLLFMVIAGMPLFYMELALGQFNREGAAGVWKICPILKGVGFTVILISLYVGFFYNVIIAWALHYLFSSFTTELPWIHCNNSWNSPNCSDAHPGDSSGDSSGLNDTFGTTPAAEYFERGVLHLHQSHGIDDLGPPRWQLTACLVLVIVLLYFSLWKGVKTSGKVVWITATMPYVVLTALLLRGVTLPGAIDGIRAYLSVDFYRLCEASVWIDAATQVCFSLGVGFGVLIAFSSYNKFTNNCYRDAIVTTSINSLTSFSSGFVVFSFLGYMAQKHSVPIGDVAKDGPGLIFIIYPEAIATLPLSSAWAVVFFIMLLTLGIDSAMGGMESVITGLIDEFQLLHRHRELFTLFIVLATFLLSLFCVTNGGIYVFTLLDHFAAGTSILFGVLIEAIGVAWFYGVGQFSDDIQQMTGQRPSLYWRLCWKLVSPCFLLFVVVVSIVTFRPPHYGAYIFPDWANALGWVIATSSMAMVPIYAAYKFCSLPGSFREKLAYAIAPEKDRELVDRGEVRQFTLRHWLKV
Sequence of Sodium-dependent serotonin transporter (Homo sapiens, UniProt P31645) (P31645 whole entry): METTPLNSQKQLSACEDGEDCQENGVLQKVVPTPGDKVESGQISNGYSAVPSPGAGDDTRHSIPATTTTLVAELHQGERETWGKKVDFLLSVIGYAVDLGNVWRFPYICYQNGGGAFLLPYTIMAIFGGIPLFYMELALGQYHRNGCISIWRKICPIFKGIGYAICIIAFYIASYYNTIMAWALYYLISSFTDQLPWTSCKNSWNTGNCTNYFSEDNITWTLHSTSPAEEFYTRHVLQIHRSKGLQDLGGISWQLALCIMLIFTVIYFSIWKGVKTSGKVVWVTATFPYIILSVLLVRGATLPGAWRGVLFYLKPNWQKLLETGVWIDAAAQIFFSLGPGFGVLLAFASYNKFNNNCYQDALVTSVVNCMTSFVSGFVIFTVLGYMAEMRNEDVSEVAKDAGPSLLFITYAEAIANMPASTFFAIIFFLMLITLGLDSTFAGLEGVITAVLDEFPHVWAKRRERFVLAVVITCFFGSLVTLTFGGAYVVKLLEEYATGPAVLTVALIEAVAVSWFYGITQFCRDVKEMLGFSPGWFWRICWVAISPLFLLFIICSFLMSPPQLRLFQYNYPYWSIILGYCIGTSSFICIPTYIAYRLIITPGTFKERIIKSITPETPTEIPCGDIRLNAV
Sequence of Sodium-dependent noradrenaline transporter (P23975 whole entry): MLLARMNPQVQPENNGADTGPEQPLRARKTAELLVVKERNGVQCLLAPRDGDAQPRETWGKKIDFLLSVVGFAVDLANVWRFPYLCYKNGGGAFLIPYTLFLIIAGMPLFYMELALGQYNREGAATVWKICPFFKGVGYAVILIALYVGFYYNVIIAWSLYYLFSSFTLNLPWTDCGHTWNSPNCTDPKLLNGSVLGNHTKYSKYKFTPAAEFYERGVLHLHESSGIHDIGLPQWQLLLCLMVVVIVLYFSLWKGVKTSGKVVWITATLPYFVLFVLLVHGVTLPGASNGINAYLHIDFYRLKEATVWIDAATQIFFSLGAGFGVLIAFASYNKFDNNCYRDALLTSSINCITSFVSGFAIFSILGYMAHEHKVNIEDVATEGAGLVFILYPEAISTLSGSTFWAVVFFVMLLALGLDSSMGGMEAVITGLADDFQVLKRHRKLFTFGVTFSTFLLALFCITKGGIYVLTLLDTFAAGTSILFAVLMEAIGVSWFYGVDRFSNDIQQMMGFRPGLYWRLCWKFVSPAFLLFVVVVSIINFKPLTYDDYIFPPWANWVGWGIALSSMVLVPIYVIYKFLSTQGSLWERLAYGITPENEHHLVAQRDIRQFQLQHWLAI
Sequence of Mu-type opioid receptor (P97266 whole entry): as the sequence (P97266 whole entry) above

`CC1CN(C)C2CCCC1(c1cccc(O)c1)C2` (centres undefined) showed a Ke [1] of 25.2 nM and a Ke [2] of 76.4 nM.

`CN1C2CC[C@@H]1C[C@H](c1ccc(Cl)cc1)C2C(=O)OCCc1ccc(N)cc1` (some centres undefined) was tested, and the IC50 [3] was 2.16 nM.

For `CN1[C@H]2CC[C@@H]1[C@@H](C(=O)N1CCCC1)[C@@H](c1ccc(I)cc1)C2`, the Ki [4] was 157 nM and the Ki [5] was 596 nM.

`C[C@H]1C2CCCC1(c1cccc(O)c1)CCN2CCc1ccccc1` (some centres undefined) gave a Ke [1] of 0.338 nM and a Ke [2] of 1.34 nM.

With `COC(=O)[C@@H]1C2CC[C@H](C[C@@H]1c1ccccc1)N2C.Cl` the ED50 (Rattus norvegicus [6]) was 0.35 mg/kg, the Ki [5] was 554 nM and the Peak time (Rattus norvegicus [7]) was 10 min. For the same compound, the “Maximal locomotor activity (% of cocaine)” value (Rattus norvegicus [8]) was 146%, the Time (Rattus norvegicus [9]) was 2 h and the ED50 (Rattus norvegicus [10]) was 2.1 mg/kg.

For `COC(=O)C1C2CC[C@H](C[C@@H]1c1ccc(Cl)cc1)N2C` (some centres undefined), the Ki [4] was 4.1 nM.

In the case of `Cc1ccccc1/C=C/CN1CC[C@@](C)(c2cccc(O)c2)[C@@H](C)C1`, the Ke [1] is reported as 0.013 nM, the Ke [2] is reported as 0.17 nM and the Ki (Mu-type opioid receptor) is reported as 0.86 nM.

`CC1C2CCCC1(c1cccc(O)c1)CCN2C` (centres undefined) was tested, and the Ke [1] was 21.2 nM and the Ke [2] was 105 nM.

Work on `COC(=O)C1C2CC[C@H](C[C@@H]1c1ccc(Cl)c(C)c1)N2C` (some centres undefined) yielded an IC50 [4] of 10.5 nM, a Ki [4] of 0.95 nM and an AD50 (Mus musculus [11]) of 1.5 mM/kg. The ED50 (Rattus norvegicus [6]) was 0.21 mg/kg, the Ki [5] was 2.8 nM and the IC50 [12] was 0.6 nM. For the same compound, the IC50 [13] was 1 nM, the Peak time (Rattus norvegicus [7]) was 30 min and the IC50 [3] was 0.81 nM. For the same compound, the IC50 [14] was 0.8 nM, the “Maximal locomotor activity (% of cocaine)” value (Rattus norvegicus [8]) was 75% and the IC50 [15] was 36.2 nM. For the same compound, the AD50 (Mus musculus [16]) was 3.5 mM/kg, the Time (Rattus norvegicus [9]) was >4 h and the ED50 (Rattus norvegicus [10]) was 2.2 mg/kg.

In the case of `CN1CCc2cc(Cl)c(O)cc2[C@@H](c2ccccc2)C1`, the NC [17] is reported as “inactive” and the NC [18] is reported as “inactive”.

`COC(=O)C1C2CC[C@H](C[C@H]1c1ccc(Br)cc1)N2C` (some centres undefined) showed an IC50 [4] of 10.6 nM and a Ki [4] of 0.96 nM.

For `COC(=O)C1C2CC[C@H](C[C@@H]1c1ccc(C)c(F)c1)N2` (some centres undefined), the IC50 [4] was 97.4 nM, the Ki [4] was 23.8 nM and the Ki [5] was 0.43 nM. For the same compound, the IC50 [3] was 9 nM and the IC50 [15] was 0.86 nM.

With `Oc1ccc2c3c1O[C@H]1c4[nH]c5c(c4C[C@@]4(O)[C@@H](C2)N(CC2CC2)CC[C@]314)C[C@@]1(O)[C@H]2Cc3ccc(O)c4c3[C@@]1(CCN2CC1CC1)[C@H]5O4` the Ke [19] was 0.07 nM, the Ke [1] was 16.8 nM and the Ke [20] was 0.038 nM. It also gave a Ke [21] of 15.8 nM.

Work on `CCc1ccc([C@H]2C[C@H]3CCC(N3)C2C(=O)OC)cc1` (some centres undefined) yielded an IC50 [4] of 8.1 nM, a Ki [4] of 0.74 nM and a Ki [5] of 74 nM. The IC50 [3] was 50 nM and the IC50 [15] was 122 nM.

With `Oc1cc2c(cc1O)C(c1ccccc1)CNCC2` (centres undefined) the NC [17] was “inactive” and the NC [18] was “inactive”.

`CN(C)C(=O)C1C2CC[C@H](C[C@@H]1c1ccc(Cl)cc1)N2C` (some centres undefined) showed an IC50 [4] of 1080 nM, a Ki [4] of 98 nM and a Ki [5] of 566 nM. For the same compound, the IC50 [3] was 1.38 nM and the IC50 [15] was 940 nM.

`CC(C)[C@@H](CN1CC[C@@](C)(c2cccc(O)c2)[C@@H](C)C1)NC(=O)[C@H]1Cc2ccc(O)cc2CN1` was tested, and the Ke [22] was > 100 nM, the Ke [21] was 3.42 nM and the Ke [23] was 6 pM.

`CC(C)[C@@H](CN1CC[C@@](C)(c2cccc(O)c2)[C@@H](C)C1)NC(=O)CCc1ccc(O)cc1` was tested, and the Ke [1] was 7.25 nM and the Ke [2] was 4.7 nM.
